Several values for one entry are separate records, joined by “and”; a condition that tells them apart may be missing. Identical values can stand only once.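 Values below derive from 48-hour exposures of cells grown in 96-well plates, with endpoints linearly interpolated between the two concentrations bracketing the appropriate inhibition level. GI50 = concentration required for 50% inhibition of growth. TGI marks complete inhibition of growth.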

For the first test, the system named is RPMI-8226 leukemia. Nature of the test: inhibition of tumour cell growth, NCI panel, 48 h.
For the compound `O=C(c1cccs1)C1NO[N+]([O-])=C1c1cccs1` (stereo not drawn), the GI50 is 2360 nM and the TGI was determined as 6.2 µM.

In turn, `COc1c(O)c(OC)c2oc(-c3ccc(O)cc3)c(OC)c(=O)c2c1O` displayed a TGI above 100 µM.

As to `COc1ccc(C2=C(N3CCc4ccccc43)C(=O)NC2=O)cc1`, the GI50 was above 22900 nM and the TGI was above 25 µM.

On to `Cc1cc2c(cc1Cl)S/C(=C/C(=O)O)C(Nc1cccc3nsnc13)=NS2(=O)=O`, for which the GI50 is 10700 nM and the TGI amounted to 40.6 µM.

Consider `COc1ccc(F)c(F)c1C(=O)c1cnc(NC2CCN(S(C)(=O)=O)CC2)nc1N`, for which the GI50 is 791 nM and 353 nM; the TGI is 4.98 µM and 5.57 µM.

Consider `Nc1cc(-c2ccc(Cl)cc2)nn1-c1nnc(/C=C/c2ccco2)c(=O)[nH]1`, for which the GI50 is 1540 nM and the TGI was above 48.1 µM.

Compound `Cc1c(C)c(CC(=O)N2CC2)c(C)c(C)c1CC(=O)N1CC1` yielded a TGI of 55.5 µM.

With `O=C1c2ccccc2-c2c1c1c(NCCCO)nc3ccccc3c1n2Cc1ccccc1`, the GI50 is 14300 nM and the TGI stood at 27.3 µM.

In turn, `CCCCCCCCCCCCCCCCCCOCC(COCCOCC[N+]1(CCCCCC(=O)[O-])CCCC1)Oc1ncccn1` (stereo not drawn) gave a TGI of 8.96 µM.

A further test concerns HT29 colon. Kind of test: inhibition of tumour cell growth, NCI panel, 48 h.
On to `Clc1ccc2c(c1)N(c1ncnc3ccc(-c4cnc5[nH]ncc5c4)cc13)CC2`, for which the GI50 is 344 nM and the TGI was above 100 µM.

Turning to `COc1ccc(-c2cnoc2-c2cc(OC)c3c(c2)OCCO3)cc1`, the GI50 is 33.1 nM and the TGI is 20.8 µM.

`CC(C)Oc1ccc(C(=O)Cn2ccnc2)cc1-n1c(CN2CCN(C(=O)COc3ccc(Cl)cc3)CC2)nc2ccccc2c1=O`: the GI50 is 14800 nM and the TGI was 44.9 µM.

Consider `COc1cccc(COc2cc(-n3cnc4ccccc43)sc2C(N)=O)c1`, for which the GI50 is 2030 nM and the TGI was above 25 µM.

On to `CCN(CC)c1ccc(/C=C/C2=[N+](C)c3ccccc3C2(C)C)c(C)c1`, for which the GI50 is 46.3 nM and the TGI is 1.32 µM.

With `Fc1ccc2nc(-c3cc(-c4ccc5c(c4)OCO5)n[nH]3)[nH]c2c1`, the GI50 is 5060 nM and the TGI was above 37.8 µM.

Consider `COC(=O)c1ccc2c(c1)C(=O)c1c-2n(CCCN=[N+]=[N-])c(=O)c2cc([N+](=O)[O-])ccc12`, for which the GI50 is above 100000 nM and the TGI is above 100 µM.

With `O=C(c1cccs1)C1NO[N+]([O-])=C1c1cccs1` (stereo not drawn), the GI50 is 1940 nM and the TGI came out at 3.65 µM.

`COc1c(O)c(OC)c2oc(-c3ccc(O)cc3)c(OC)c(=O)c2c1O`: the TGI is above 100 µM.

Regarding `COc1ccc(C2=C(N3CCc4ccccc43)C(=O)NC2=O)cc1`, the GI50 was above 25000 nM and the TGI is above 25 µM.

For `Cc1cc2c(cc1Cl)S/C(=C/C(=O)O)C(Nc1cccc3nsnc13)=NS2(=O)=O`, the GI50 was 6170 nM and the TGI was above 63.1 µM.

Take `COc1ccc(F)c(F)c1C(=O)c1cnc(NC2CCN(S(C)(=O)=O)CC2)nc1N`: the GI50 is 420 nM and 341 nM; the TGI was 7.68 µM and > 9.06 µM.

For `Nc1cc(-c2ccc(Cl)cc2)nn1-c1nnc(/C=C/c2ccco2)c(=O)[nH]1`, the GI50 is 6610 nM and the TGI was above 100 µM.

`Cc1c(C)c(CC(=O)N2CC2)c(C)c(C)c1CC(=O)N1CC1` yielded a TGI above 75.1 µM.

For the compound `O=C1c2ccccc2-c2c1c1c(NCCCO)nc3ccccc3c1n2Cc1ccccc1`, the GI50 is 17100 nM and the TGI is 30.8 µM.

For `CCCCCCCCCCCCCCCCCCOCC(COCCOCC[N+]1(CCCCCC(=O)[O-])CCCC1)Oc1ncccn1` (stereo not drawn), the TGI turned out to be 13.7 µM.

A further test deals with CCRF-CEM leukemia. Nature of the test: inhibition of tumour cell growth, NCI panel, 48 h.
For `Clc1ccc2c(c1)N(c1ncnc3ccc(-c4cnc5[nH]ncc5c4)cc13)CC2`, the GI50 is 547 nM and the TGI is above 100 µM.

On to `COc1ccc(-c2cnoc2-c2cc(OC)c3c(c2)OCCO3)cc1`, for which the GI50 is 37.9 nM and the TGI was above 100 µM.

Turning to `CC(C)Oc1ccc(C(=O)Cn2ccnc2)cc1-n1c(CN2CCN(C(=O)COc3ccc(Cl)cc3)CC2)nc2ccccc2c1=O`, the GI50 was 11000 nM and the TGI was above 100 µM.

As to `COc1cccc(COc2cc(-n3cnc4ccccc43)sc2C(N)=O)c1`, the GI50 is 1150 nM and the TGI is above 25 µM.

Consider `CCN(CC)c1ccc(/C=C/C2=[N+](C)c3ccccc3C2(C)C)c(C)c1`, for which the GI50 was 27.1 nM and the TGI came to 4.68 µM.

For `Fc1ccc2nc(-c3cc(-c4ccc5c(c4)OCO5)n[nH]3)[nH]c2c1`, the GI50 was 2620 nM and the TGI is above 44.7 µM.

Take `COC(=O)c1ccc2c(c1)C(=O)c1c-2n(CCCN=[N+]=[N-])c(=O)c2cc([N+](=O)[O-])ccc12`: the GI50 is 42200 nM and the TGI is above 100 µM.

Turning to `O=C(c1cccs1)C1NO[N+]([O-])=C1c1cccs1` (stereo not drawn), the GI50 is 1230 nM and the TGI is 3.54 µM.

The compound `COc1c(O)c(OC)c2oc(-c3ccc(O)cc3)c(OC)c(=O)c2c1O` displayed a TGI above 100 µM.

With `COc1ccc(C2=C(N3CCc4ccccc43)C(=O)NC2=O)cc1`, the GI50 is 2730 nM and the TGI was above 11.7 µM.

Take `Cc1cc2c(cc1Cl)S/C(=C/C(=O)O)C(Nc1cccc3nsnc13)=NS2(=O)=O`: the GI50 is 22500 nM and the TGI is above 81.9 µM.

Regarding `COc1ccc(F)c(F)c1C(=O)c1cnc(NC2CCN(S(C)(=O)=O)CC2)nc1N`, the GI50 was 431 nM and 237 nM; the TGI was above 8.34 µM.

As for `Nc1cc(-c2ccc(Cl)cc2)nn1-c1nnc(/C=C/c2ccco2)c(=O)[nH]1`, the GI50 is 2260 nM and the TGI was above 41 µM.

In turn, `Cc1c(C)c(CC(=O)N2CC2)c(C)c(C)c1CC(=O)N1CC1` came in with a TGI above 48.8 µM.

For the compound `O=C1c2ccccc2-c2c1c1c(NCCCO)nc3ccccc3c1n2Cc1ccccc1`, the GI50 was 17600 nM and the TGI stood at 45.9 µM.

On to `CCCCCCCCCCCCCCCCCCOCC(COCCOCC[N+]1(CCCCCC(=O)[O-])CCCC1)Oc1ncccn1` (stereo not drawn), for which the TGI is 13.9 µM.
